Measured values taken from PubChem BioAssay AID1919015 (Molecular Pharmacology Branch, DTP, NCI, 2023).

Tested on: OVCAR-5 complex spheroids with HUVEC/MSC, viability, % test/control
Test: Anticancer human tumor OVCAR-5 cell line growth inhibition [AhR];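 further: spheroids exposed to compounds for 7 days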;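 on viability, T/C: 100% = DMSO vehicle control wells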
Settings: for IC50: curve of first compound; for viability, T/C: stronger effect = lower value
Method in brief: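 Agents were dosed in half-log steps down from roughly clinical Cmax, or from 10 microM where Cmax was unknown, alone and with AhR antagonists. Read-out: percent test/control growth of tumor spheroids containing HUVEC and MSC stromal cells.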

[1] = second compound 0.1 µM, first compound 0.000949 µM
[2] = second compound 0.1 µM, first compound 0.003 µM
[3] = second compound 0.1 µM, first compound 0.00949 µM
[4] = second compound 0.1 µM, first compound 0.03 µM
[5] = second compound 0.1 µM, first compound 0.0949 µM
[6] = second compound 0.1 µM, first compound 0.3 µM
[7] = second compound 0.316 µM, first compound 0.000949 µM
[8] = second compound 0.316 µM, first compound 0.003 µM
[9] = second compound 0.316 µM, first compound 0.00949 µM
[10] = second compound 0.316 µM, first compound 0.03 µM
[11] = second compound 0.316 µM, first compound 0.0949 µM
[12] = second compound 0.316 µM, first compound 0.3 µM
[13] = second compound 1 µM, first compound 0.000949 µM
[14] = second compound 1 µM, first compound 0.003 µM
[15] = second compound 1 µM, first compound 0.00949 µM
[16] = second compound 1 µM, first compound 0.03 µM
[17] = second compound 1 µM, first compound 0.0949 µM
[18] = second compound 1 µM, first compound 0.3 µM
[19] = second compound 3.16 µM, first compound 0.000949 µM
[20] = second compound 3.16 µM, first compound 0.003 µM
[21] = second compound 3.16 µM, first compound 0.00949 µM
[22] = second compound 3.16 µM, first compound 0.03 µM
[23] = second compound 3.16 µM, first compound 0.0949 µM
[24] = second compound 3.16 µM, first compound 0.3 µM
[25] = second compound 10 µM, first compound 0.000949 µM
[26] = second compound 10 µM, first compound 0.003 µM
[27] = second compound 10 µM, first compound 0.00949 µM
[28] = second compound 10 µM, first compound 0.03 µM
[29] = second compound 10 µM, first compound 0.0949 µM
[30] = second compound 10 µM, first compound 0.3 µM

Work on CC(C)CC(NC(=O)C(Cc1ccccc1)NC(=O)c1cnccn1)B(O)O (stereo not given) + Cc1cncc(-c2nc(NCCc3c[nH]c4ccccc34)c3ncn(C(C)C)c3n2)c1 yielded an IC50 (second compound 0.1 µM) of 58.1 nM, an IC50 (second compound 0.316 µM) of 57.2 nM and an IC50 (second compound 1 µM) of 54.6 nM. For the same compound, the IC50 (second compound 3.16 µM) was 41.1 nM, the IC50 (second compound 10 µM) was under 0.949 nM and the viability, T/C [1] was 96.8%. For the same compound, the viability, T/C [2] was 102%, the viability, T/C [3] was 102% and the viability, T/C [4] was 74.7%. It also gave a viability, T/C [5] of 32.2%, a viability, T/C [6] of 27.2% and a viability, T/C [7] of 96.3%. The viability, T/C [8] was 100%, the viability, T/C [9] was 101% and the viability, T/C [10] was 72.1%. It also gave a viability, T/C [11] of 33.2%, a viability, T/C [12] of 23.6% and a viability, T/C [13] of 96.7%. It also gave a viability, T/C [14] of 95%, a viability, T/C [15] of 96.6% and a viability, T/C [16] of 68.2%. The viability, T/C [17] was 33.6%, the viability, T/C [18] was 25% and the viability, T/C [19] was 82.9%. It also gave a viability, T/C [20] of 76.3%, a viability, T/C [21] of 75.9% and a viability, T/C [22] of 59.5%. It also gave a viability, T/C [23] of 25.6%, a viability, T/C [24] of 15.4% and a viability, T/C [25] of 19.6%. The viability, T/C [26] was 24.7%, the viability, T/C [27] was 15% and the viability, T/C [28] was 1.7%. It also gave a viability, T/C [29] of 0.78% and a viability, T/C [30] of 0.54%.

CCc1c2c(nc3ccc(O)cc13)-c1cc3c(c(=O)n1C2)COC(=O)[C@]3(O)CC + Cc1cncc(-c2nc(NCCc3c[nH]c4ccccc34)c3ncn(C(C)C)c3n2)c1 was tested, and the IC50 (second compound 0.1 µM) was 9.8 nM, the IC50 (second compound 0.316 µM) was 9.09 nM and the IC50 (second compound 1 µM) was 8.08 nM. The IC50 (second compound 3.16 µM) was 3.77 nM, the IC50 (second compound 10 µM) was under 0.949 nM and the viability, T/C [1] was 83.8%. It also gave a viability, T/C [2] of 59%, a viability, T/C [3] of 46.3% and a viability, T/C [4] of 44.8%. For the same compound, the viability, T/C [5] was 23.4%, the viability, T/C [6] was 9.85% and the viability, T/C [7] was 80.1%. For the same compound, the viability, T/C [8] was 57.1%, the viability, T/C [9] was 47.4% and the viability, T/C [10] was 42.3%. It also gave a viability, T/C [11] of 22.8%, a viability, T/C [12] of 9.22% and a viability, T/C [13] of 73.1%. The viability, T/C [14] was 51.4%, the viability, T/C [15] was 50.7% and the viability, T/C [16] was 42.3%. For the same compound, the viability, T/C [17] was 21.5%, the viability, T/C [18] was 9.57% and the viability, T/C [19] was 56.8%. The viability, T/C [20] was 43.8%, the viability, T/C [21] was 48.4% and the viability, T/C [22] was 40.2%. For the same compound, the viability, T/C [23] was 21.9%, the viability, T/C [24] was 8.5% and the viability, T/C [25] was 4.99%. The viability, T/C [26] was 5.37%, the viability, T/C [27] was 9.12% and the viability, T/C [28] was 7.96%. For the same compound, the viability, T/C [29] was 4.98% and the viability, T/C [30] was 2.23%.

Nc1ccccc1NC(=O)c1ccc(CNC(=O)OCc2cccnc2)cc1 + Cc1cncc(-c2nc(NCCc3c[nH]c4ccccc34)c3ncn(C(C)C)c3n2)c1 gave an IC50 (second compound 0.1 µM) of 834 nM, an IC50 (second compound 0.316 µM) of 731 nM and an IC50 (second compound 1 µM) of 724 nM. The IC50 (second compound 3.16 µM) was 549 nM, the IC50 (second compound 10 µM) was under 31.6 nM and the viability, T/C (second compound 0.1 µM, first compound 0.0316 µM) was 86%. It also gave a viability, T/C (second compound 0.1 µM, first compound 0.1 µM) of 84.7%, a viability, T/C (second compound 0.1 µM, first compound 0.316 µM) of 69.5% and a viability, T/C (second compound 0.1 µM, first compound 1 µM) of 47.4%. For the same compound, the viability, T/C (second compound 0.1 µM, first compound 3.16 µM) was 19.9%, the viability, T/C (second compound 0.1 µM, first compound 10 µM) was 9.54% and the viability, T/C (second compound 0.316 µM, first compound 0.0316 µM) was 86%. The viability, T/C (second compound 0.316 µM, first compound 0.1 µM) was 79.5%, the viability, T/C (second compound 0.316 µM, first compound 0.316 µM) was 66.8% and the viability, T/C (second compound 0.316 µM, first compound 1 µM) was 44.3%. The viability, T/C (second compound 0.316 µM, first compound 3.16 µM) was 20.1%, the viability, T/C (second compound 0.316 µM, first compound 10 µM) was 7.96% and the viability, T/C (second compound 1 µM, first compound 0.0316 µM) was 80.4%. For the same compound, the viability, T/C (second compound 1 µM, first compound 0.1 µM) was 77.2%, the viability, T/C (second compound 1 µM, first compound 0.316 µM) was 68.8% and the viability, T/C (second compound 1 µM, first compound 1 µM) was 42.8%. The viability, T/C (second compound 1 µM, first compound 3.16 µM) was 16.6%, the viability, T/C (second compound 1 µM, first compound 10 µM) was 7.92% and the viability, T/C (second compound 3.16 µM, first compound 0.0316 µM) was 71.2%. The viability, T/C (second compound 3.16 µM, first compound 0.1 µM) was 71.4%, the viability, T/C (second compound 3.16 µM, first compound 0.316 µM) was 62.7% and the viability, T/C (second compound 3.16 µM, first compound 1 µM) was 36%. The viability, T/C (second compound 3.16 µM, first compound 3.16 µM) was 13.5%, the viability, T/C (second compound 3.16 µM, first compound 10 µM) was 6.41% and the viability, T/C (second compound 10 µM, first compound 0.0316 µM) was 10.4%. For the same compound, the viability, T/C (second compound 10 µM, first compound 0.1 µM) was 10.3%, the viability, T/C (second compound 10 µM, first compound 0.316 µM) was 13.1% and the viability, T/C (second compound 10 µM, first compound 1 µM) was 14.3%. The viability, T/C (second compound 10 µM, first compound 3.16 µM) was 2.83% and the viability, T/C (second compound 10 µM, first compound 10 µM) was 0.51%.
